Data as given in PubChem BioAssay AID328 (DTP/NCI, 2004).
Inconclusive results and toxic doses are left out.

Tested on: BDF1 mice, P388 leukemia ip, median survival T/C
Assay: NCI In Vivo Anticancer Drug Screen. Data for tumor model P388 Leukemia (intraperitoneal) in B6D2F1 (BDF1) mice
Settings: endpoint: median survival time, higher = longer survival
How it was run: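 Reported as T/C, where T is the survival measurement in dosed animals and C the same measurement in vehicle controls.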

[1] = dose: 75.0 mg/kg/injection, schedule: Q04DX003 (ip), vehicle: saline with Tween-80
[2] = dose: 150.0 mg/kg/injection, schedule: Q04DX003 (ip), vehicle: saline with Tween-80
[3] = dose: 100.0 mg/kg/injection, schedule: Q04DX003 (ip), vehicle: saline
[4] = dose: 200.0 mg/kg/injection, schedule: Q04DX003 (ip), vehicle: saline
[5] = dose: 50.0 mg/kg/injection, schedule: Q01DX009 (ip), vehicle: saline with Tween-80
[6] = dose: 100.0 mg/kg/injection, schedule: Q01DX009 (ip), vehicle: saline with Tween-80
[7] = dose: 200.0 mg/kg/injection, schedule: Q01DX009 (ip), vehicle: saline with Tween-80
[8] = dose: 25.0 mg/kg/injection, schedule: Q01DX009 (ip), vehicle: saline with Tween-80
[9] = dose: 100.0 mg/kg/injection, schedule: Q04DX003 (ip), vehicle: saline with Tween-80
[10] = dose: 200.0 mg/kg/injection, schedule: Q04DX003 (ip), vehicle: saline with Tween-80
[11] = dose: 6.25 mg/kg/injection, schedule: Q01DX009 (ip), vehicle: saline with Tween-80
[12] = dose: 12.5 mg/kg/injection, schedule: Q01DX009 (ip), vehicle: saline with Tween-80
[13] = dose: 100.0 mg/kg/injection, schedule: Q04DX003 (ip), vehicle: Klucel (hydroxypropylcellulose) (HPC)
[14] = dose: 200.0 mg/kg/injection, schedule: Q04DX003 (ip), vehicle: Klucel (hydroxypropylcellulose) (HPC)

Compound: O=NO.O=N[O-].O=N[O-].[Co+3].[NH-]CC[N-]CCO.[NH-]CC[N-]CCO
- T/C (dose: 25.0 mg/kg/injection, schedule: Q01DX009 (ip), vehicle: water): 104 % of control
- T/C (dose: 25.0 mg/kg/injection, schedule: Q04DX003 (ip), vehicle: water): 100 % of control
- T/C (dose: 50.0 mg/kg/injection, schedule: Q01DX009 (ip), vehicle: water): 98 % of control
- T/C (dose: 50.0 mg/kg/injection, schedule: Q04DX003 (ip), vehicle: water): 109 % of control
- T/C (dose: 100.0 mg/kg/injection, schedule: Q04DX003 (ip), vehicle: water): 104 % of control

Compound: NNc1cnc2ccccc2n1
- T/C (dose: 37.5 mg/kg/injection, schedule: Q04DX003 (ip), vehicle: saline with Tween-80): 100 % of control
- T/C [1]: 191 % of control
- T/C [2]: 100 % of control

Compound: CC(O)COCc1ccccc1 (stereo not given)
- T/C [3]: 100 % of control
- T/C [4]: 87 % of control
- T/C (dose: 400.0 mg/kg/injection, schedule: Q04DX003 (ip), vehicle: saline): 108 % of control

Compound: N#CCCN(C(=O)Nc1ccc(Cl)c(Cl)c1)C1CCCCC1
- T/C [5]: 124 % of control
- T/C [6]: 104 % of control
- T/C [7]: 94 % of control
- T/C (dose: 400.0 mg/kg/injection, schedule: Q01DX009 (ip), vehicle: saline with Tween-80): 97 % of control

Compound: O=C(O)c1ccc(Oc2nc3ccccc3s2)cc1
- T/C [8]: 95 % of control
- T/C [5]: 95 % of control
- T/C [6]: 104 % of control

Compound: Cc1nc([N+](=O)[O-])cn1CCC#N
- T/C [9]: 98 % of control
- T/C [10]: 99 % of control
- T/C (dose: 400.0 mg/kg/injection, schedule: Q04DX003 (ip), vehicle: saline with Tween-80): 86 % of control

Compound: c1ccc(COc2ccc(OCc3ccccc3)cc2)cc1
- T/C [1]: 104 % of control
- T/C [2]: 109 % of control
- T/C (dose: 300.0 mg/kg/injection, schedule: Q04DX003 (ip), vehicle: saline with Tween-80): 104 % of control

Compound: CN=C(NC)c1ccc(NC(=O)c2ccc(C(=O)Nc3ccc(C(=NC)NC)cc3)cc2)cc1
- T/C [11]: 104 % of control
- T/C [12]: 100 % of control
- T/C [8]: 86 % of control
- T/C [3]: 90 % of control
- T/C [4]: 90 % of control

Compound: CC(Cl)(Cl)CC(O)(C(F)(F)F)C(F)(F)F
- T/C (dose: 50.0 mg/kg/injection, schedule: Q04DX003 (ip), vehicle: saline with Tween-80): 95 % of control
- T/C [9]: 90 % of control
- T/C [10]: 90 % of control

Compound: Cc1c(C(=O)O)cc2n(c1=O)Cc1cc3ccccc3nc1-2
- T/C (dose: 50.0 mg/kg/injection, schedule: Q01DX009 (ip), vehicle: saline): 95 % of control
- T/C (dose: 50.0 mg/kg/injection, schedule: Q04DX003 (ip), vehicle: saline): 92 % of control
- T/C (dose: 100.0 mg/kg/injection, schedule: Q01DX009 (ip), vehicle: saline): 113 % of control
- T/C [3]: 100 % of control
- T/C (dose: 200.0 mg/kg/injection, schedule: Q01DX009 (ip), vehicle: saline): 100 % of control
- T/C [4]: 96 % of control

Compound: O=C(/C=C/c1ccccc1)NC(CO)Cc1ccccc1 (stereo not given)
- T/C [11]: 90 % of control
- T/C [12]: 92 % of control
- T/C [8]: 101 % of control
- T/C [6]: 100 % of control
- T/C [7]: 100 % of control

Compound: CCOC(=O)c1c(N)c2cnn(C)c2[nH]c1=O
- T/C (dose: 100.0 mg/kg/injection, schedule: Q04DX002 (ip), vehicle: saline with Tween-80): 100 % of control
- T/C (dose: 200.0 mg/kg/injection, schedule: Q04DX002 (ip), vehicle: saline with Tween-80): 90 % of control
- T/C (dose: 400.0 mg/kg/injection, schedule: Q04DX002 (ip), vehicle: saline with Tween-80): 90 % of control

Compound: C=C(Cl)CSCC
- T/C (dose: 6.25 mg/kg/injection, schedule: Q04DX003 (ip), vehicle: alcohol): 100 % of control
- T/C (dose: 12.5 mg/kg/injection, schedule: Q01DX009 (ip), vehicle: acetone): 118 % of control
- T/C (dose: 12.5 mg/kg/injection, schedule: Q04DX003 (ip), vehicle: alcohol): 105 % of control
- T/C (dose: 25.0 mg/kg/injection, schedule: Q01DX009 (ip), vehicle: acetone): 113 % of control
- T/C (dose: 25.0 mg/kg/injection, schedule: Q04DX003 (ip), vehicle: alcohol): 100 % of control
- T/C (dose: 45.0 mg/kg/injection, schedule: Q01DX001 (ip), vehicle: saline): 109 % of control
- T/C (dose: 90.0 mg/kg/injection, schedule: Q01DX001 (ip), vehicle: saline): 109 % of control
- T/C (dose: 120.0 mg/kg/injection, schedule: Q04DX003 (ip), vehicle: saline): 109 % of control
- T/C (dose: 180.0 mg/kg/injection, schedule: Q04DX003 (ip), vehicle: saline): 95 % of control
- T/C (dose: 270.0 mg/kg/injection, schedule: Q04DX003 (ip), vehicle: saline): 86 % of control

Compound: CCOC(=O)C(Cc1ccc(N(CCCl)CCCl)cc1)NC(=O)C(C)NC(C)=O (stereo not given)
- T/C (dose: 5.0 mg/kg/injection, schedule: Q04DX003 (ip), vehicle: water): 99 % of control
- T/C (dose: 10.0 mg/kg/injection, schedule: Q04DX003 (ip), vehicle: water): 99 % of control
- T/C (dose: 20.0 mg/kg/injection, schedule: Q04DX003 (ip), vehicle: water): 112 % of control
- T/C (dose: 40.0 mg/kg/injection, schedule: Q04DX003 (ip), vehicle: water): 116 % of control

Compound: O=C1CSc2cc[nH]c21
- T/C (dose: 50.0 mg/kg/injection, schedule: Q04DX003 (ip), vehicle: Klucel (hydroxypropylcellulose) (HPC)): 90 % of control
- T/C [13]: 90 % of control
- T/C [14]: 104 % of control

Compound: CC[C@H](CC[C@@H](C)[C@H]1CC[C@H]2[C@@H]3CC=C4C[C@@H](O)CC[C@]4(C)[C@H]3CC[C@]12C)C(C)C
- T/C [13]: 100 % of control
- T/C [14]: 86 % of control
- T/C (dose: 400.0 mg/kg/injection, schedule: Q04DX003 (ip), vehicle: Klucel (hydroxypropylcellulose) (HPC)): 100 % of control

Compound: CCOC(=O)CN1C=C(C(=O)c2cc3ccccc3[nH]2)CCC1
- T/C (dose: 0.06 mg/kg/injection, schedule: Q01DX009 (ip), vehicle: saline): 105 % of control
- T/C (dose: 0.12 mg/kg/injection, schedule: Q01DX009 (ip), vehicle: saline): 105 % of control
- T/C (dose: 0.25 mg/kg/injection, schedule: Q01DX009 (ip), vehicle: saline): 105 % of control
- T/C (dose: 0.5 mg/kg/injection, schedule: Q01DX009 (ip), vehicle: saline): 100 % of control
- T/C (dose: 1.0 mg/kg/injection, schedule: Q01DX009 (ip), vehicle: saline): 105 % of control
- T/C (dose: 2.0 mg/kg/injection, schedule: Q01DX009 (ip), vehicle: saline): 110 % of control
- T/C (dose: 4.0 mg/kg/injection, schedule: Q01DX009 (ip), vehicle: saline): 99 % of control
- T/C (dose: 8.0 mg/kg/injection, schedule: Q01DX009 (ip), vehicle: saline): 98 % of control
- T/C (dose: 16.0 mg/kg/injection, schedule: Q01DX009 (ip), vehicle: saline): 93 % of control
- T/C (dose: 32.0 mg/kg/injection, schedule: Q01DX009 (ip), vehicle: saline): 98 % of control

Compound: c1ccc(-c2nnn(-c3ccccc3)n2)cc1
- T/C [5]: 93 % of control
- T/C [7]: 93 % of control

Compound: Clc1ccc2c(c1)nnn2OC1CCCCCC1
- T/C [5]: 101 % of control
- T/C [6]: 97 % of control
- T/C [7]: 108 % of control

Compound: Clc1ccc(C(Cl)(Cl)Cl)cc1Cl
- T/C (dose: 12.5 mg/kg/injection, schedule: Q01DX009 (ip), vehicle: Klucel (hydroxypropylcellulose) (HPC)): 95 % of control
- T/C (dose: 25.0 mg/kg/injection, schedule: Q01DX009 (ip), vehicle: Klucel (hydroxypropylcellulose) (HPC)): 100 % of control
- T/C (dose: 50.0 mg/kg/injection, schedule: Q01DX009 (ip), vehicle: Klucel (hydroxypropylcellulose) (HPC)): 100 % of control

Compound: CNc1ccc(C(=O)O)c(Cl)c1
- T/C (dose: 75.0 mg/kg/injection, schedule: Q04DX003 (ip), vehicle: saline): 100 % of control
- T/C (dose: 150.0 mg/kg/injection, schedule: Q04DX003 (ip), vehicle: saline): 95 % of control
- T/C (dose: 300.0 mg/kg/injection, schedule: Q04DX003 (ip), vehicle: saline): 100 % of control

Compound: O=[N+]([O-])c1c(Cl)cccc1-c1c[nH]cc1Cl
- T/C (dose: 100.0 mg/kg/injection, schedule: Q01DX009 (ip), vehicle: Klucel (hydroxypropylcellulose) (HPC)): 95 % of control
- T/C (dose: 200.0 mg/kg/injection, schedule: Q01DX009 (ip), vehicle: Klucel (hydroxypropylcellulose) (HPC)): 95 % of control
- T/C (dose: 400.0 mg/kg/injection, schedule: Q01DX009 (ip), vehicle: Klucel (hydroxypropylcellulose) (HPC)): 86 % of control
